Reference: patent publication US9090599B2, “Heteroarylmethyl amides” (Hoffman-La Roche Inc., priority 2010, dated 2015)
Like-named read-outs stand apart in the source and are kept apart here.

Tests used:
ABCA1 protein = test: Detection of upregulation of ABCA1 protein in THP-1 macrophage cells (ApoA-I binding, high content imaging); format: cell-based; settings: 24 hrs with compound, AlexaFluor 647 ApoA-I binding, read-out: ABCA1 protein increasing efficacy EC50
Procedure: The ability of compounds of the invention to increase the level of ABCA1 protein is determined in replicate cultures of THP-1 macrophage cells in 96-well microplates. Cells are plated at an initial density of 100,000 cells/well in 100 μl medium and differentiated to adherent macrophages with the addition of PMA (100 nM) for 68 hrs in 10% fetal bovine serum, 3 μl/L of b-mercaptoethanol, RPMI-1640 medium. Then, cells are incubated with RPMI-1640 medium containing 1% FCS, 25 μg/ml acetylated LDL, for 24 hours at 37°. Following incubation with acetylated LDL, cells are washed twice with 50 μl PBS and incubated with 100 μl of RPMI-1640 medium containing the compound of interest solubilized in DMSO for an additional 24 hrs. The final DMSO concentration in presence of cells is maintained at 0.5%. ApoA-I binding assay using High Content Image Analysis is initiated by replacing with fresh medium, RPMI without Phenol Red, 0.2% BSA containing AlexaFluor®647 labeled ApoA-I for 2 h/37° C./5% CO2. Then, cells are fixed with 4% Formaldehyde in PBS (15 min, RT). Following Nuclei are stained with Hoechst solution (3 μM PBS) and Cytoplasm with Cell Mask Blue (2 μg/ml PBS), 15 min, RT. Finally the stained cells are fixed with a second round of formaldehyde treatment. Fixed stained cells are washed and kept in PBS at 4° C. and can be read immediately until one month after preparation.
The Alexa Fluor 647-labeled Apolipoprotein A-I (20 nM) was prepared as follows: Human recombinant Apolipoprotein A-I (ApoA-I) was exchanged to a buffer of 0.02 M NaHCO3 at pH 8.2 on an NAP desalting column (GE Healthcare) and brought to a concentration to 40 μM (1.13 mg/ml) by adjustment with the same buffer. The ApoA-I was fluorescently labeled by incubation with Alexa Fluor carboxylic acid succimidyl ester. (Alexa Fluor 647, Invitrogen A-20006) at a 2:1 molar ratio (Alexa to ApoA-I) for 1 h under shaking at RT. The remaining unconjugated label was removed by buffer exchange to 0.02M NaHCO3 at pH 8.2.
Imaging and data collection were performed on an OPERA confocal microplate imaging reader using a 20× water immersion objective and UV360 or 405 laser to identify the cell nuclei and a 635 laser to identify the fluorescent ApoA-I. Eight fields of view are captured per well. Image capture and analysis was performed with the Acapella software. Background fluorescence detected in control wells without ApoA-I was subtracted.
Using XLfit3 program (ID Business Solutions Ltd. UK), the model 205 for Dose Response One Site is used to calculate the EC50 values. […] Preferably, the compounds of the present invention have EC50 values in a range of 0.1 μM to 3 μM.

human CB1 receptor = target: T1, human CB1 receptor (Homo sapiens, UniProt P21554); test: CB1 receptor affinity, [3H]-CP-55,940 displacement, HEK cell membranes; format: binding; settings: read-out: CB1 receptor affinity [% inhibition @ 10 μM]
T1 construct: expressed in transfected cells; host or cells: human embryonic kidney (HEK) cells, Semliki Forest Virus system, membrane preparations
Procedure: (§1) The affinity of the compounds of the invention for cannabinoid receptors was determined using membrane preparations of human embryonic kidney (HEK) cells in which the human CB1 receptor is transiently transfected using a Semliki Forest Virus system in conjunction with [3H]-CP-55,940 as radioligand. After incubation of freshly prepared cell membrane preparation with the [^3H]-ligand, with or without addition of compounds of the invention, separation of bound and free ligand was performed by filtration over glass fiber filters. Radioactivity on the filter was measured by scintillation counting.
(§2) The ability of the compounds to displace the radioligand [^3H]-CP-55,940 was measured at a concentration of 10 μM and values provided as [% inhibition @ 10 μM] both for the CB 1 and CB2 receptor assay, The lower % inhibition is, the lower the likelihood of side effects based on CB1 or CB2 receptor inhibition is.

human CB2 receptor = target: T2, human CB2 receptor (Homo sapiens, UniProt P34972); test: CB2 receptor affinity, [3H]-CP-55,940 displacement, HEK cell membranes; format: binding; settings: 10 μM compound, radioligand [3H]-CP-55,940
T2 construct: expressed in transfected cells; host or cells: human embryonic kidney (HEK) cells, Semliki Forest Virus system, membrane preparations
Procedure: as §1, with “cannabinoid CB2” for “cannabinoid”, “CB2” for “CB1”, “[^3H]-CP-55,940” for “[3H]-CP-55,940”
as §2

[1] = 10 μM compound, radioligand [3H]-CP-55,940

T1 sequence (P21554 whole entry): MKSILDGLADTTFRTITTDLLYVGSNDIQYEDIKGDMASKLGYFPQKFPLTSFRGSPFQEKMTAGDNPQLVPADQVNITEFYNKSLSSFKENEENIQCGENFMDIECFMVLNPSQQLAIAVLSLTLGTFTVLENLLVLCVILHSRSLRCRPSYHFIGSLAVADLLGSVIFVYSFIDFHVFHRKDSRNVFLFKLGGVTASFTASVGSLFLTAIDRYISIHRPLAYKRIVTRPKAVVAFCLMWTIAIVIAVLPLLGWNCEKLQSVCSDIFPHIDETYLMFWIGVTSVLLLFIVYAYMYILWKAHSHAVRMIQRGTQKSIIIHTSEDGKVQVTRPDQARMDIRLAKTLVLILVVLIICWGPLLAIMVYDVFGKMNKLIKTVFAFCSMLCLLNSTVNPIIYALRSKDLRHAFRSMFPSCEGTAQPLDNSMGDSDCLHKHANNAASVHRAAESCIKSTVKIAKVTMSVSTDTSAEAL
T2 sequence (P34972 whole entry): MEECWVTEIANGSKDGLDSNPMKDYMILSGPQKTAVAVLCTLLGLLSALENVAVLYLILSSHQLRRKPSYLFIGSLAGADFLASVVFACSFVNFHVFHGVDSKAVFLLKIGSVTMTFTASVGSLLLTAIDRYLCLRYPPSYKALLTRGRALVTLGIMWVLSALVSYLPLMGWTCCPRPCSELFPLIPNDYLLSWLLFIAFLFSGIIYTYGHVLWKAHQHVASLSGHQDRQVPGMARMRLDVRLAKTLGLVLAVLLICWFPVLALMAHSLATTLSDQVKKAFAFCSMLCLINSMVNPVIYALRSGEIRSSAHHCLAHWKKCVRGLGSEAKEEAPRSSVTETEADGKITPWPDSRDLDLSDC

Compound	inhibition at 10 µM (human CB1 receptor; [1])	inhibition at 10 µM (human CB2 receptor)	EC50 (ABCA1 protein)	inhibition at 10 µM (human CB1 receptor)
CCc1cc(CNC(=O)c2cc(-c3ccc(Cl)cc3)c(OCC(F)(F)F)cn2)on1 [Example 3, 4-(4-chloro-phenyl)-5-(2,2,2-trifluoro-ethoxy)-pyridine-2-carboxylic acid (3-ethyl-isoxazol-5-ylmethyl)-amide]		18%	1240 nM	38%
CC(C)c1nc(CNC(=O)c2cnc(OCC(F)(F)F)c(-c3ccc(Cl)cc3)c2)cs1 [Example 8, 5-(4-chloro-phenyl)-N-(2-isopropyl-thiazol-4-ylmethyl)-6-(2,2,2-trifluoro-ethoxy)-nicotinamide]		10%	900 nM	24%
CCCc1nc(CNC(=O)c2cnc(OCC3CC3)c(-c3ccc(Cl)cc3)c2)cs1 [Example 11, 5-(4-chloro-phenyl)-6-cyclopropylmethoxy-N-(2-propyl-thiazol-4-ylmethyl)-nicotinamide]		12%	1500 nM	25%
O=C(NCc1nc(C(F)(F)F)no1)c1ccc(OCC(F)(F)F)c(-c2ccc(Cl)cc2)n1 [Example 22, 6-(4-chloro-phenyl)-5-(2,2,2-trifluoro-ethoxy)-pyridine-2-carboxylic acid (3-trifluoromethyl-[1,2,4]oxadiazol-5-ylmethyl)-amide]	40%	6%	2270 nM	
COCCOc1ncc(C(=O)NCc2nc(C(F)(F)F)no2)cc1-c1ccc(Cl)c(C)c1 [Example 98, 5-(4-chloro-3-methylphenyl)-6-(2-methoxyethoxy)-N-((3-(trifluoromethyl)-1,2,4-oxadiazol-5-yl)methyl)nicotinamide]	41%	16%		
O=C(NCc1ccccn1)c1cnc(OC2CCC2)c(-c2ccc(Cl)cc2)c1 [Example 101, 5-(4-chlorophenyl)-6-cyclobutoxy-N-(pyridin-2-ylmethyl)nicotinamide]	45%	37%		
O=C(NCc1nc(C(F)(F)F)no1)c1cnc(OCCO)c(-c2ccc(Cl)cc2)c1 [Example 102, 5-(4-chlorophenyl)-6-(2-hydroxyethoxy)-N-((3-(trifluoromethyl)-1,2,4-oxadiazol-5-yl)methyl)nicotinamide]	26%	-4%		
O=C(NCc1nc(C(F)(F)F)no1)c1cnc(O[C@@H]2CCOC2)c(-c2ccc(Cl)cc2)c1 [Example 103, (R)-5-(4-chlorophenyl)-6-(tetrahydrofuran-3-yloxy)-N-((3-(trifluoromethyl)-1,2,4-oxadiazol-5-yl)methyl)nicotinamide]	47%	24%		

Continued, in another order:

inhibition at 10 µM (human CB1 receptor; [1])	inhibition at 10 µM (human CB2 receptor)	Compound	EC50 (ABCA1 protein)	inhibition at 10 µM (human CB1 receptor)
32%	28%	COc1cc(CNC(=O)c2cc(-c3ccc(Cl)cc3)c(OCC(F)(F)F)cn2)on1 [Example 1, 4-(4-chloro-phenyl)-5-(2,2,2-trifluoro-ethoxy)-pyridine-2-carboxylic acid (3-methoxy-isoxazol-5-ylmethyl)-amide]	2010 nM	
30%	14%	CC(C)c1cc(CNC(=O)c2cc(-c3ccc(Cl)cc3)c(OCC(F)(F)F)cn2)on1 [Example 2, 4-(4-chloro-phenyl)-5-(2,2,2-trifluoro-ethoxy)-pyridine-2-carboxylic acid (3-isopropyl-isoxazol-5-ylmethyl)-amide]	1090 nM	
26%	33%	CCCn1ccc(CNC(=O)c2cc(-c3ccc(Cl)cc3)c(OCC(F)(F)F)cn2)n1 [Example 4, 4-(4-chloro-phenyl)-5-(2,2,2-trifluoro-ethoxy)-pyridine-2-carboxylic acid (1-propyl-1H-pyrazol-3-ylmethyl)-amide]	2800 nM	
48%	5%	COc1cc(CNC(=O)c2cnc(OCC(F)(F)F)c(-c3ccc(Cl)cc3)c2)on1 [Example 5, 5-(4-chloro-phenyl)-N-(3-methoxy-isoxazol-5-ylmethyl)-6-(2,2,2-trifluoro-ethoxy)-nicotinamide]	2100 nM	
5%	15%	CC(C)c1nc(CNC(=O)c2cc(-c3ccc(Cl)cc3)c(OCC(F)(F)F)cn2)cs1 [Example 6, 4-(4-chloro-phenyl)-5-(2,2,2-trifluoro-ethoxy)-pyridine-2-carboxylic acid (2-isopropyl-thiazol-4-ylmethyl)-amide]	7800 nM	
22%	6%	CCc1nc(CNC(=O)c2cnc(OCC(F)(F)F)c(-c3ccc(Cl)cc3)c2)cs1 [Example 7, 5-(4-chloro-phenyl)-N-(2-ethyl-thiazol-4-ylmethyl)-6-(2,2,2-trifluoro-ethoxy)-nicotinamide]	1500 nM	
18%	1%	CCCc1nc(CNC(=O)c2cnc(OCC(F)(F)F)c(-c3ccc(Cl)cc3)c2)cs1 [Example 9, 5-(4-chloro-phenyl)-N-(2-propyl-thiazol-4-ylmethyl)-6-(2,2,2-trifluoro-ethoxy)-nicotinamide]	900 nM	
43%	-4%	O=C(NCc1noc(C(F)(F)F)n1)c1cnc(OCC(F)(F)F)c(-c2ccc(Cl)cc2)c1 [Example 12, 5-(4-chloro-phenyl)-6-(2,2,2-trifluoro-ethoxy)-N-(5-trifluoromethyl-[1,2,4]oxadiazol-3-ylmethyl)-nicotinamide]	1180 nM	
48%	12%	CCCn1ccc(CNC(=O)c2cnc(OCC(F)(F)F)c(-c3ccc(Cl)cc3)c2)n1 [Example 14, 5-(4-chloro-phenyl)-N-(1-propyl-1H-pyrazol-3-ylmethyl)-6-(2,2,2-trifluoro-ethoxy)-nicotinamide]	950 nM	
45%	-6%	O=C(NCc1nc(C(F)(F)F)no1)c1cnc(OCC(F)(F)F)c(-c2ccc(Cl)cc2)c1 [Example 15, 5-(4-chloro-phenyl)-6-(2,2,2-trifluoro-ethoxy)-N-(3-trifluoromethyl-[1,2,4]oxadiazol-5-ylmethyl)-nicotinamide]	840 nM	
28%	24%	O=C(NCc1nc(C(F)(F)F)no1)c1cc(-c2ccc(Cl)cc2)c(OCC2CC2)cn1 [Example 18, 4-(4-chlorophenyl)-5-(cyclopropylmethoxy)-N-((3-(trifluoromethyl)-1,2,4-oxadiazol-5-yl)methyl)picolinamide]	6910 nM	
18%	7%	COc1cc(CNC(=O)c2cc(-c3ccc(Cl)cc3)c(OCC(F)(F)F)nn2)on1 [Example 23, 5-(4-chlorophenyl)-N-((3-methoxyisoxazol-5-yl)methyl)-6-(2,2,2-trifluoroethoxy)pyridazine-3-carboxamide]	930 nM	
